ChEMBL document CHEMBL1201862, “PubChem BioAssay data set” (2004)
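Tested at 5 concentrations; 48 h exposure; 96-well plates; endpoints linearly interpolated, else capped at highest concentration. Here, GI50 denotes the concentration required for 50% inhibition of growth.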 Active and inactive are the calls of the source. Rule as the data show it: active = GI50 up to about 1.1 µM and inactive = higher.

How the values were obtained:
Assay in all cases: NCI tumour cell line growth inhibition, 48 h
HCC 2998 = tested on: HCC 2998
HCT-15 = tested on: HCT-15
HT-29 = tested on: HT-29
Hs-578T = tested on: Hs-578T
KM12 = tested on: KM12
LOX IMVI = tested on: LOX IMVI
MCF7 = tested on: MCF7
MDA-MB-231 = tested on: MDA-MB-231
Malme-3M = tested on: Malme-3M
NCI-H226 = tested on: NCI-H226
OVCAR-5 = tested on: OVCAR-5
RPMI-8226 = tested on: RPMI-8226
RXF 393 = tested on: RXF 393
SF-295 = tested on: SF-295
SK-MEL-2 = tested on: SK-MEL-2
SNB-19 = tested on: SNB-19
SNB-75 = tested on: SNB-75
TK-10 = tested on: TK-10
UACC-257 = tested on: UACC-257
UO-31 = tested on: UO-31

Row | SMILES | GI50 (HCC 2998) | GI50 (HCT-15) [nM] | GI50 (HT-29) | GI50 (Hs-578T) | GI50 (KM12) | GI50 (LOX IMVI) | GI50 (MCF7) | GI50 (MDA-MB-231) | GI50 (Malme-3M) | GI50 (NCI-H226) | GI50 (OVCAR-5) | GI50 (RPMI-8226) | GI50 (RXF 393) | GI50 (SF-295) | GI50 (SK-MEL-2) | GI50 (SNB-19) | GI50 (SNB-75) | GI50 (TK-10) | GI50 (UACC-257) | GI50 (UO-31)
1 | CC(C)/C=C1\CCC(CN(C)C)C1=O (stereo not given) | 7.03 µM (inactive) | 2130 | 2.12 µM (inactive) | 1.86 µM (inactive) | 1.22 µM (inactive) | 4.99 µM (inactive) | 313 nM (active) | 1.42 µM (inactive) | 1.04 µM (active) | 26.9 µM (inactive) | 8.41 µM (inactive) | 130 nM (active) | 656 nM (active) | 16.6 µM (inactive) | 7.05 µM (inactive) | 9.66 µM (inactive) | 3.48 µM (inactive) | 2.09 µM (inactive) | 4.63 µM (inactive) | 8.79 µM (inactive)
2 | COC1=C(Cl)C(=O)c2c(O)ccc(O)c2C1=O | 13 µM (inactive) | 1340 | 3.15 µM (inactive) | 1.11 µM (active) | 6.17 µM (inactive) | 1.38 µM (inactive) | 1040 nM (active) | 1.66 µM (inactive) | 0.478 µM (active) | 11.2 µM (inactive) | 3.01 µM (inactive) | 272 nM (active) | 1300 nM (inactive) | 6.43 µM (inactive) | 0.499 µM (active) | 5.98 µM (inactive) | 4.88 µM (inactive) | 1.05 µM (active) | 1.77 µM (inactive) | 1.77 µM (inactive)
